Measured values reported in patent publication US20100179225A1, “POI Prevention” (CYTOKINE PHARMASCIENCES, INC., priority 2008, published 2010).

Experiments:
p38-MAPK = p38-MAPK activation in CSF-1 mutant op−/− mice (Pathscan-Phospho-p38α-ELISA); format: in vivo; details: 5 mg/kg i.v. preoperative, 20 minutes after IM, mean±SEM
Source text: Male C57BL/6J mice ([…] bodyweight) were obtained from Harlan-Winkelmann (Borchen, Germany). CSF-1 mutant op−/− mice (strain B6C3Fe a/a-Csf1op) and populations of unknown heterozygous or wildtype genotype (op+/?) of mixed gender were used at an age of 6 weeks and bred as described before (Wehner S, Behrendt F F, Lyutenski B N et al. Inhibition of macrophage function prevents intestinal inflammation and postoperative ileus in rodents. Gut 2007; 56:176-185). op−/− mice were phenotyped by the absence of incisors at day P10. All experiments were performed in accordance with the federal law regarding the protection of animals. The principles of laboratory animal care were followed. Animals were maintained on a 12-hour light/dark cycle and provided with commercially available rodent chow and tap water ad libitum.
p38-MAPK phosphorylation was evaluated in unoperated homozygous colony stimulating factor-1 mutant mice (op−/−) mice, or in op−/− and op+/? mice (a mixed population of unknown heterozygous +/− or homozygous +/+ wildtype mice) 20 minutes after IM. […] Additionally, CNI-1493 (5 mg/kg) pretreated op−/− mice were analyzed. In this experiment, p38-MAPK phosphorylation was quantified by the Pathscan-Phospho-p38α-ELISA following manufacturer's instructions. Phospho-p38 content of each probe was determined in duplicate from lysates with 6.25 μg total protein content.

[1] = tested on: circular smooth muscle of the graft; experiment: Mechanical in vitro activity of mid-jejunum graft circular smooth muscle (bethanechol); format: in vivo, Lewis rats; details: 1 mg/kg i.v. 90 min before; 18 h reperfusion; 100 μmol/L bethanechol
Description: (§1) Syngeneic orthotopic small intestinal transplantation was performed in Lewis rats as previously described (Schwarz N T, Nakao A, Nalesnik M A, Kalff J C, Murase N, Bauer A J. Protective effects of ex vivo graft radiation and tacrolimus on syngeneic transplanted rat small bowel motility. Surgery 2002; 131: 413-423). […] Then the graft vascular bed was perfused with chilled UW solution (University of Wisconcin) and the intestinal lumen was irrigated with 50 ml cold 0.9% NaCl solution containing […]. neomycin sulfate (Uro Nebacetin N, Nycomed, Germany). The graft was stored in cold UW solution during the preparation of the recipient. […]
Mechanical in vitro activity of the mid-jejunum was evaluated at 18 hours after reperfusion using smooth muscle strips of the circular muscularis as described previously (N=8 each) (Kalff J C, Schraut W H, Simmons R L, Bauer A J. Surgical manipulation of the gut elicits an intestinal muscularis inflammatory response resulting in postsurgical ileus. Ann Surg 1998; 228: 652-663). […] The contractile response was analyzed with the ADI Chart© software and the contractions were calculated as grams per square millimeter per second by conversion of the weight and length of the strip to square millimeters of tissue.

ED1 positive cells = experiment: ED1 positive cell (monocyte/macrophage) infiltration into graft muscularis after small intestinal transplantation; format: in vivo, Lewis rats; details: 1 mg/kg i.v.; 18 h after reperfusion
Description: as §1, with “recipient. An end-to-side anastomosis between the graft aorta and the recipient infra-renal aorta, and between the graft vein and recipient vena cava, was performed.” for “recipient.”
ED1 and MPO+-cells were counted under a microscope (TE-2000, Nikon, Duesseldorf, Germany) in 5 randomly chosen areas in each specimen.
In order to evaluate cell populations which are known to be associated with inflammation processes and to initiate immunological processes within the muscularis, leukocyte infiltrates were evaluated after 18 h by MPO histochemistry (polymorphonuclear neutrophils) and ED1 immunohistochemistry (monocytes and passenger macrophages). […]

## C/C(=N\N=C(N)N)c1cc(NC(=O)CCCCCCCCC(=O)Nc2cc(/C(C)=N/N=C(N)N)cc(/C(C)=N/N=C(N)N)c2)cc(/C(C)=N/N=C(N)N)c1.Cl.Cl.Cl.Cl [CNI-1493]
p38-MAPK
  p38-MAPK phosphorylation levels (phospho-p38 ELISA): 3.24±0.66

## C/C(=N\N=C(N)N)c1cc(NC(=O)CCCCCCCCC(=O)Nc2cc(/C(C)=N/N=C(N)N)cc(/C(C)=N/N=C(N)N)c2)cc(/C(C)=N/N=C(N)N)c1.CS(=O)(=O)O.CS(=O)(=O)O.CS(=O)(=O)O.CS(=O)(=O)O [CPSI-2364]
[1]
  circular smooth muscle contractile force: 3.63 grams/mm2/sec
  increase in circular smooth muscle contractile activity in comparison to the vehicle grafts: 96%
ED1 positive cells
  ED1 positive cells in muscularis: 54.8 cells/field of view (magnification 200×)
